Laboratory results: ChEMBL document CHEMBL1201862, “PubChem BioAssay data set” (2004)
Active and inactive are the calls of the source.

What was measured:
[1] = HIV-1 Vif–A3G interaction blockers – biochemical, TR-FRET, GST-Vif 1-94, biotin-A3G peptide, dose response retest, primary screen (AID 1117319); format: functional;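 further: TR-FRET signal of purified GST-Vif binding a biotinylated A3G peptide; inhibitors lower the FRET signal by blocking Vif and A3G binding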
[2] = A2780 cell killing – plate reader, dry powder samples, cytotoxicity control, dose response (AID 743046); format: functional, cell-based
[3] = target: Paired box protein Pax-8 (Homo sapiens, UniProt Q06710); assay: PAX8 transcriptional activity inhibition in RMG-I – RMG-I cells, luciferase, cherry-pick, dose response (AID 687027); format: functional, cell-based;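 further: luciferase reporter driven by Pax8 target thyroperoxidase promoter measured by SteadyGlo luminescence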
[4] = OVCAR8 cell viability loss – plate reader, dry powder samples, PAX8 project, dose response (AID 743197); format: functional, cell-based; settings: OVCAR-8
[5] = OVCAR-3 cell viability loss – plate reader, dry powder samples, PAX8 inhibitor project, dose response (AID 743044); format: functional, cell-based
[6] = cytotoxicity toward HT-29 cells – cell-based, CellTiter-Glo luminescence, IC50, dose response (AID 1117330); format: functional
[7] = cytotoxicity toward Colo320 cells – cell-based, CellTiter-Glo luminescence, IC50, dose response (AID 1117334); format: functional; settings: COLO 320
[8] = HCT116 cell viability decrease, GSK3B pretreatment – CellTiter-Glo, IC50, dose response (AID 1117339); format: functional; settings: HCT-116
[9] = CellTiter-Glo luminescence survival assay, SW480 colon tumor line, concentration-response curve, half-maximal inhibitory concentration (AID 1117338); format: functional
[10] = RKO cell viability reduction, dose response, CellTiter-Glo luminescence (AID 1117322); format: functional
[11] = cytotoxicity toward HCT116 cells – cell-based, CellTiter-Glo luminescence, IC50, dose response (AID 1117332); format: functional; settings: HCT-116
[12] = Reduced DLD-1 viability, concentration-response, CellTiter-Glo luminescence (AID 1117352); format: functional
[13] = SNU-C1 cell viability reduction, dose response, CellTiter-Glo luminescence (AID 1117323); format: functional, cell-based
[14] = target: Large T antigen (Simian virus 40, UniProt P03070); format: functional, Betapolyomavirus macacae;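 further: Confirmatory-stage PubChem screen for compounds that inhibit SV40 T antigen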
[15] = target: Glutathione-S-transferase (Schistosoma japonicum, UniProt Q26513); assay: GST-antibody interaction or FRET quenching – biochemical, TR-FRET, artefact control for Vif-APOBEC3G degradation inhibitor project, dose response (AID 1117362); format: functional
[16] = target: DNA (cytosine-5)-methyltransferase 1 (Homo sapiens, UniProt P26358); assay: inhibition of DNA methylation by DNMT1 – biochemical, fluorescent molecular beacon, confirmation (AID 602386); format: functional
[17] = target: T1, Protein RecA (Mycobacterium tuberculosis, UniProt P9WHJ3); assay: Fluorescence Cell-Free Homogeneous Dose Retest to Identify Inhibitors of RecA-Intein Splicing Activity. [Related pubchem assays (depositor defined):AID2097, AID2223, AID489010, AID492950]; format: functional
T1 sequence (P9WHJ3 whole entry): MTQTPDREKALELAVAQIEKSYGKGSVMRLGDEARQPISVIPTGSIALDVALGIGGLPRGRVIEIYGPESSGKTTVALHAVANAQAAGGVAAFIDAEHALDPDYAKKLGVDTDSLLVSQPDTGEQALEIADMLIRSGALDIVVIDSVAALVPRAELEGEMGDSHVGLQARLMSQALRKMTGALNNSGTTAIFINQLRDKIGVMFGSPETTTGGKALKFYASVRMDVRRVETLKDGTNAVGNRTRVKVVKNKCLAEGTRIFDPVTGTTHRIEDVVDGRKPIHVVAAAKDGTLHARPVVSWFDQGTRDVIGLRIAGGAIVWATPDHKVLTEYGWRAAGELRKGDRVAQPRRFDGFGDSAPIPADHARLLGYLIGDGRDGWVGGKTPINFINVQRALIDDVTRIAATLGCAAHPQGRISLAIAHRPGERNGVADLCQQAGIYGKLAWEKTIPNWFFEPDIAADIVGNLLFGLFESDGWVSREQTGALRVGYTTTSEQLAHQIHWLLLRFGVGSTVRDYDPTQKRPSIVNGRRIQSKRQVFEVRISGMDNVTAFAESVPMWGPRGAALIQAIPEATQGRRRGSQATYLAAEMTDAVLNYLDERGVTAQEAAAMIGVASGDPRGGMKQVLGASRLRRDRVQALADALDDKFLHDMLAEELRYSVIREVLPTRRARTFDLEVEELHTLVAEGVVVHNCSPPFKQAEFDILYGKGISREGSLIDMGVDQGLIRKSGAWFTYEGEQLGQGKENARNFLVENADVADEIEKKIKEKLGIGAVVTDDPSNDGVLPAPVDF

[18] = target: Caspase-6 (Homo sapiens, UniProt P55212); assay: inhibition of CASP6 peptide cleavage – biochemical, VEID-R110 fluorescence, cherry-pick, dose response (AID 720632)
[19] = target: T2, Replicative DNA helicase DnaB (Mycobacterium tuberculosis, UniProt P9WMR3); assay: DnaB intein splicing inhibitors, dose response, biochemical, cell-free fluorescence (AID 449749); format: functional
T2 sequence (P9WMR3 whole entry): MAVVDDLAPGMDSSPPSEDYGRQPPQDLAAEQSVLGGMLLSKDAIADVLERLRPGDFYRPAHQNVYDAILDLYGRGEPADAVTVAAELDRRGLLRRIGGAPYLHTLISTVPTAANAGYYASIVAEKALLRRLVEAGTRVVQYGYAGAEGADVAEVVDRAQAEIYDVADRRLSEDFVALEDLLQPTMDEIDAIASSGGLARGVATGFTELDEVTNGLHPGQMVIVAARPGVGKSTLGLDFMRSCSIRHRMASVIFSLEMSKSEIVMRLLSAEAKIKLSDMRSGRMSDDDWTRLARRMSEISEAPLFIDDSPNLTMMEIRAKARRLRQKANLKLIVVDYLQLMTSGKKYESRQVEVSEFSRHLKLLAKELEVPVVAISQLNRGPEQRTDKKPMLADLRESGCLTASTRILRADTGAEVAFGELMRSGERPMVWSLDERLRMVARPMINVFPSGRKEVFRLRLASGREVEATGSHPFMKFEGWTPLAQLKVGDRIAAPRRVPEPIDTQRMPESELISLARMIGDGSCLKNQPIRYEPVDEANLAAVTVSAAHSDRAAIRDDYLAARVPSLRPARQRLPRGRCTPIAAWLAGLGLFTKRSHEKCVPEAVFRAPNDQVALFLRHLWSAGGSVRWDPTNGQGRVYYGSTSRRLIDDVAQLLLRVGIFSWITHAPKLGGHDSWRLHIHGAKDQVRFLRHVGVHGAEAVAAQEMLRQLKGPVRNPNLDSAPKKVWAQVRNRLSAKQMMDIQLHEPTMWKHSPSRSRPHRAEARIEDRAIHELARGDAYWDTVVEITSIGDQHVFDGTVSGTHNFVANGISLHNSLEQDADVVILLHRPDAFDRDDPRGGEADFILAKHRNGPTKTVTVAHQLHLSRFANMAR

[20] = target: Histone-lysine N-methyltransferase NSD2 (Homo sapiens, UniProt O96028); format: biochemical
Histone-lysine N-methyltransferase NSD2, sequence (O96028 whole entry): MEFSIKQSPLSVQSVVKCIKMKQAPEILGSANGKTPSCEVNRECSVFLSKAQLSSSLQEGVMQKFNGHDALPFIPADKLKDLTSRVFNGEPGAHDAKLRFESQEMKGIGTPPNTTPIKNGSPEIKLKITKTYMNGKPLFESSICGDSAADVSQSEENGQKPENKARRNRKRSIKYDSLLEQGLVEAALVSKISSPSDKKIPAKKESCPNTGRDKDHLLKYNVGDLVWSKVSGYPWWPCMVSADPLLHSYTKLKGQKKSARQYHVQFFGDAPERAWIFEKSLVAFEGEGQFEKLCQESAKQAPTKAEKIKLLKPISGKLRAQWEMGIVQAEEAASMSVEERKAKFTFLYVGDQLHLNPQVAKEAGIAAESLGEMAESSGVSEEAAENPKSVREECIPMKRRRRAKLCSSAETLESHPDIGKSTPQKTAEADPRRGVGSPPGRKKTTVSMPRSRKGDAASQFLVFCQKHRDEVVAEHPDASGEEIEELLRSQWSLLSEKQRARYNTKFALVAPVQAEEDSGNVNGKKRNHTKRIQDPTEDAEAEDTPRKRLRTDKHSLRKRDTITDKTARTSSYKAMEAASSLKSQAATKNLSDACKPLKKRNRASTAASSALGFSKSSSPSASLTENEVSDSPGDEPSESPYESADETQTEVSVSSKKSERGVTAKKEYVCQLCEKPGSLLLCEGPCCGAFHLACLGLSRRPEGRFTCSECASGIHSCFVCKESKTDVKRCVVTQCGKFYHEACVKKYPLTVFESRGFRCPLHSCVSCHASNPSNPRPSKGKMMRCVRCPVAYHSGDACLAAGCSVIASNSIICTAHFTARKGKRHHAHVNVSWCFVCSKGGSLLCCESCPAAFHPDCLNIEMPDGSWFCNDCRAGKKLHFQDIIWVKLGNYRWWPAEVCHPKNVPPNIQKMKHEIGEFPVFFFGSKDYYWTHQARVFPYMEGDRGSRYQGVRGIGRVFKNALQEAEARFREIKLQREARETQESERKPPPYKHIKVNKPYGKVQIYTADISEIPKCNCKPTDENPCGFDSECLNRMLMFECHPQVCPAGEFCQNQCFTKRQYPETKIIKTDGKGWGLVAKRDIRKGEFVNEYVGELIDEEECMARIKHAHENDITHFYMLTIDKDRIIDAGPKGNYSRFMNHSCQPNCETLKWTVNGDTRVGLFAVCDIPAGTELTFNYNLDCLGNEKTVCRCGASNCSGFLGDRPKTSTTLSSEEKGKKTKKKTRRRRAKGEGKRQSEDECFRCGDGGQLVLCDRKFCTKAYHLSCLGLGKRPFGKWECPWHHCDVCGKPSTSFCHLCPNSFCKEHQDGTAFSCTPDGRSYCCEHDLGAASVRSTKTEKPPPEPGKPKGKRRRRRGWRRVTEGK

Paired box protein Pax-8, sequence (Q06710 whole entry): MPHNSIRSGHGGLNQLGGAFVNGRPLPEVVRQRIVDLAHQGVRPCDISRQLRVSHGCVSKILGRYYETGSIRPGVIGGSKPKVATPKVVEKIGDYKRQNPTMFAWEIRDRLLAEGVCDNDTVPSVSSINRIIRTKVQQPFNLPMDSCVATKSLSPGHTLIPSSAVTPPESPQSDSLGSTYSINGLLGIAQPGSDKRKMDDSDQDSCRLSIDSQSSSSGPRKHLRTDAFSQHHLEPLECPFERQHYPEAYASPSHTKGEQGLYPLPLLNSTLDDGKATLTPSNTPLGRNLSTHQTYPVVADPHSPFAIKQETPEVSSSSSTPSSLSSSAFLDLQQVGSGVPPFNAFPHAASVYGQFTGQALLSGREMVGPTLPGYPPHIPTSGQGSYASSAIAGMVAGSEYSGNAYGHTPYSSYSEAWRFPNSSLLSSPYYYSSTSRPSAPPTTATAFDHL
Glutathione-S-transferase, sequence (Q26513 whole entry): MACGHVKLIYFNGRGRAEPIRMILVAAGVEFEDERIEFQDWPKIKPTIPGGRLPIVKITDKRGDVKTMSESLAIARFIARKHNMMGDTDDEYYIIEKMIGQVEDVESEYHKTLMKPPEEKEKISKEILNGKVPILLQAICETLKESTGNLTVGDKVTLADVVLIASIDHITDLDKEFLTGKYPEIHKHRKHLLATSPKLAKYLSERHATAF
Large T antigen, sequence (P03070 whole entry): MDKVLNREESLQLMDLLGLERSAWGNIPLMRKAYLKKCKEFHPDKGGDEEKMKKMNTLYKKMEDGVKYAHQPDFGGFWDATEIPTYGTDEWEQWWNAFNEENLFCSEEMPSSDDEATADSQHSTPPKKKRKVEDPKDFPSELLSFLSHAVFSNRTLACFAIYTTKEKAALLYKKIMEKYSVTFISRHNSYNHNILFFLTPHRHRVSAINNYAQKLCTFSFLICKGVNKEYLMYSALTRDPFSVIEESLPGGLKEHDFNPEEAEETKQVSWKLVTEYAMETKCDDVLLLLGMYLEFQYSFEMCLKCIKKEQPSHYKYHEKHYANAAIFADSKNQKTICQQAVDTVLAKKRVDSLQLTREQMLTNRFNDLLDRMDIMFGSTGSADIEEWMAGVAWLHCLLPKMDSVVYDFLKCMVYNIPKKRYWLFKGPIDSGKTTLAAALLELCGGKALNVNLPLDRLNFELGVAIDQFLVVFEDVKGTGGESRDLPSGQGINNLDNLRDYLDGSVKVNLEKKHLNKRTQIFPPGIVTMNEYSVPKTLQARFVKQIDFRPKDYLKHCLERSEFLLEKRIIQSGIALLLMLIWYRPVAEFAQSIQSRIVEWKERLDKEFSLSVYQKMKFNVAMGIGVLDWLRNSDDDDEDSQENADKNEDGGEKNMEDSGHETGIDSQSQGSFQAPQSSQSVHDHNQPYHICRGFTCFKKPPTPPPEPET
Caspase-6, sequence (P55212 24-179 limits assumed): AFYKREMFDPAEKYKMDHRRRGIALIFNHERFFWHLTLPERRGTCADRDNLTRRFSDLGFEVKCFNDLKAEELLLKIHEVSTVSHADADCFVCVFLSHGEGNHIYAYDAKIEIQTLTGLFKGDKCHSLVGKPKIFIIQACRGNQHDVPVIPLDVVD
Caspase-6, sequence (P55212 194-293 limits assumed): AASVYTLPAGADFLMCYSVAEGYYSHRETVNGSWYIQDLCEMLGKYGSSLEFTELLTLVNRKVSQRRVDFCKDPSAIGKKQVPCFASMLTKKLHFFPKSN
DNA (cytosine-5)-methyltransferase 1, sequence (P26358 whole entry): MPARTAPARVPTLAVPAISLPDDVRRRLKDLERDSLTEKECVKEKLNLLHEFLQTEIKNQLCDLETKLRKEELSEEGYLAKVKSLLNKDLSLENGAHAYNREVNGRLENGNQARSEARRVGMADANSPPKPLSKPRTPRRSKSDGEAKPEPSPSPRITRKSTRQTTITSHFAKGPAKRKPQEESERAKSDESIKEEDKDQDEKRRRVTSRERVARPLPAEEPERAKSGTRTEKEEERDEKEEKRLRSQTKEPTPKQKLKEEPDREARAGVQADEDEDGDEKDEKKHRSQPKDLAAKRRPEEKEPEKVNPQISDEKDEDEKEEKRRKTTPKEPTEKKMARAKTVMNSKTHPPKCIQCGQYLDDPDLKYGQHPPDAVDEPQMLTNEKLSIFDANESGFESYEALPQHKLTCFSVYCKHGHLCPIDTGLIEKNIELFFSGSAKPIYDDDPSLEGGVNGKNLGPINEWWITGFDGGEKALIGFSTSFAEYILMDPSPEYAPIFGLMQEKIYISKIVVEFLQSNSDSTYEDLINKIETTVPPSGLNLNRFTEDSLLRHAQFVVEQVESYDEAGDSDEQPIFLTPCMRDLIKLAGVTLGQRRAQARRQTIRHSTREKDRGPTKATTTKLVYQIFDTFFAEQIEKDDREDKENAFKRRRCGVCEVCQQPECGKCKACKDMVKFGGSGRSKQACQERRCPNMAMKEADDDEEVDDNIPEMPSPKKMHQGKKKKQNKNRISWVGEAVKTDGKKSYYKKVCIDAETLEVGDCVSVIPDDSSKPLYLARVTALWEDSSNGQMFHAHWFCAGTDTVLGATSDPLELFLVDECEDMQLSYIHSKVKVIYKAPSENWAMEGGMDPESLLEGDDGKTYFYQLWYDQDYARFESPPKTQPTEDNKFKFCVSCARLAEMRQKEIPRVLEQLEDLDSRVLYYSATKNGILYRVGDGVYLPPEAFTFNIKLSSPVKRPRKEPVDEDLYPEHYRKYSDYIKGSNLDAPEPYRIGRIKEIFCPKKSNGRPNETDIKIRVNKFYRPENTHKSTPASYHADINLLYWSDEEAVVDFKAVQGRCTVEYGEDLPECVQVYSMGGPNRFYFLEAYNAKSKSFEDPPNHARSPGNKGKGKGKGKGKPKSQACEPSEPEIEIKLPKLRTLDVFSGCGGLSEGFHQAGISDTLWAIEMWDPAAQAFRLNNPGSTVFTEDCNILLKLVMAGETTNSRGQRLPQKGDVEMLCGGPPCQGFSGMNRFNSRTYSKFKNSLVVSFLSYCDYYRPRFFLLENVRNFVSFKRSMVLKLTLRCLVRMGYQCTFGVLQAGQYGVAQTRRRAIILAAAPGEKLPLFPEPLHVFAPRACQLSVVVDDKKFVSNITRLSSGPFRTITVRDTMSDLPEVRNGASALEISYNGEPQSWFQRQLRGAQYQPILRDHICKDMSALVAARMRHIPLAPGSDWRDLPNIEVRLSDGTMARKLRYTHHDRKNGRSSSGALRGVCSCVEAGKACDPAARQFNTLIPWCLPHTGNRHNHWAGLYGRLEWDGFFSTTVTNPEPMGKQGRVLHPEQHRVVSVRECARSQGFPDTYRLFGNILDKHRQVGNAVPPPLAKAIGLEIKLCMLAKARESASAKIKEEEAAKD

CCN(CC)C(=O)c1ccc(CS(=O)(=O)c2ccc(OC)cc2)o1
IC50 [1]: > 100 µM (active)

C[C@H]1CN([C@@H](C)CO)C(=O)Cc2cc(NC(=O)C3CC3)ccc2O[C@@H]1CN(C)Cc1ccc(-c2ccccc2)cc1
AC50 [2]: 21.9 µM (active)
AC50 [3]: 6.35 µM (active)
AC50 [4]: > 70 µM (inactive)
AC50 [5]: 38 µM (active)

O=[N+]([O-])c1cccc(S(=O)(=O)NCCNS(=O)(=O)c2cccc([N+](=O)[O-])c2)c1 [DINSED]
IC50 [6]: > 20 µM (inactive)
IC50 [7]: > 20 µM (inactive)
IC50 [8]: > 20 µM (inactive)
IC50 [9]: > 20 µM (inactive)
IC50 [10]: > 20 µM (inactive)
IC50 [11]: > 20 µM (inactive)
IC50 [12]: > 20 µM (inactive)
IC50 [13]: > 20 µM (inactive)

CCOC(=O)C=C(C)C=CC[C@@H](C)CCCC(C)C
IC50 [6]: > 20 µM (inactive)
IC50 [7]: > 20 µM (inactive)
IC50 [8]: > 20 µM (inactive)
IC50 [9]: > 20 µM (inactive)
IC50 [10]: > 20 µM (inactive)
IC50 [11]: > 20 µM (inactive)
IC50 [12]: > 20 µM (inactive)
IC50 [13]: > 20 µM (inactive)

Nc1ccc(-c2nc3cc(N)ccc3n2CCO)cc1
IC50 [14]: 41.7 µM (active)
IC50 [15]: > 100 µM (active)

CC(C(=O)N1CCOCC1)(c1ccccc1)c1ccccc1
IC50 [1]: > 100 µM (active)

NS(=O)(=O)c1ccc(N=Nc2ccc(O)nc2O)cc1
IC50 [16]: 7.65 µM (active)
EC50 [17]: 4.4 µM (active)
AC50 [18]: 2.07 µM (active)
AC50 [19]: 53.2 µM (active)
AC50 [20]: > 20 µM (inactive)
